Data taken from patent US20040248887A1, “Inhibitors of cathepsin S” (IRM LLC, priority 2003, published 2004).

Molecular target: Cathepsin S (Homo sapiens, UniProt P25774)
Experiment: Cathepsin S inhibition, fluorogenic peptide substrate kinetic assay
Type: biochemical
Conditions: Table II; Cathepsin S inhibition constant, pH5.5; read-out: Ki Cat. S
Excerpt: “Inhibition constant”, Ki, is the dissociation constant of the enzyme-inhibitor complex, or the reciprocal of the binding affinity of the inhibitor to the enzyme. […] The inhibited rates are then fit by nonlinear regression to the following equation: [formula]
where vo is the initial rate of substrate processing in the absence of inhibitor, v; is the initial rate of substrate processing at a concentration [I] of inhibitor, Km is the steady state Michaelis constant (Fersht, A. Structure and Mechanism in Protein Science. New York, W.H. Freeman and Company, 1999), and [S] is the concentration of competitive substrate.
The assumption being made for the classical inhibition described above is that the free inhibitor concentration is equal to the total inhibitor concentration.
The inhibition constant, Ki, can be determined from the apparent inhibition constant, Ki^app, for competitive inhibitors by using the following relationship: [formula]
The optimal substrate for cathepsin S, acetyl-histidine-proline-valine-lysine-amino carbamoyl coumarin, was identified from screening a combinatorial library of fluorogenic peptide substrates (Harris, J. L., B. J. Backes, et al., Proc Natl Acad Sci USA 2000, 97(14), 7754-9). Kinetic measurements are performed in a total reaction volume of 30 μl in 384-well microtiter plates. […] The reactions are initiated by adding the substrate, acetyl-histidine-proline-valine-lysine-amino carbamoyl coumarin, to a final concentration of 50 μM. The rate of substrate hydrolysis is measured by monitoring the increase in fluorescence at an excitation wavelength of 380 nm and an emission wavelength of 450 nm that results from cleavage of the aniline bond in the substrate by the enzyme. The apparent inhibition constants for the compounds are determined from the enzyme progress curves (Kuzmic, P., K. C. Elrod, et al., Anal Biochem 2000, 286(1), 45-50) and are then used to calculate the inhibition constants for competitive inhibitors.

Chain of Cathepsin S (P25774 115-331, species assumed): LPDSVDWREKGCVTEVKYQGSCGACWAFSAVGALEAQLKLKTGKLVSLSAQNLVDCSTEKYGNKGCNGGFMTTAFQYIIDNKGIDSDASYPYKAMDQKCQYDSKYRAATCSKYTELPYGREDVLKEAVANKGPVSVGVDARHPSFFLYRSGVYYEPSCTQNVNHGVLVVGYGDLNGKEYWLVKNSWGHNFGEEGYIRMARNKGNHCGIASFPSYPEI

| Compound | Ki [nM] |
| --- | --- |
| COc1ccc(Oc2ccc(S(=O)(=O)N[C@@H](CC3CCCCC3)C(=O)NCCN3CCc4cc(F)ccc43)cc2)cc1 [Compound 244, (S)-3-Cyclohexyl-N-[2-(5-fluoro-2,3-dihydro-indol-1-yl)-ethyl]-2-[4-(4-methoxy-phenoxy)-benzenesulfonylamino]-propionamide] | < 100 |
| CS(=O)(=O)c1ccc(C(=O)N[C@@H](CC2CCCCC2)C(=O)NCCN2CCc3cc(F)ccc32)s1 [Compound 72, 5-Methanesulfonyl-thiophene-2-carboxylic acid (S)-{2-cyclohexyl-1-[2-(5-fluoro-2,3-dihydro-indol-1-yl)-ethylcarbamoyl]-ethyl}-amide] | < 100 |
| C[C@@H](CNc1ccc(S(C)(=O)=O)cc1)NC(=O)[C@H](CC1CCCCC1)NC(=O)c1ccc(-c2cccc(F)c2)o1 [Compound 89, 5-(3-Fluoro-phenyl)-furan-2-carboxylic acid {2-cyclohexyl-1-(S)-[2-(4-methanesulfonyl-phenylamino)-1-(S)-methyl-ethylcarbamoyl]-ethyl}-amide] | < 100 |
| O=C(N[C@@H](CC1CCCCC1)C(=O)NCCN1CCc2cc(F)ccc21)C1CC(=O)N(Cc2cccs2)C1 (stereo partly drawn) [Compound 73, 5-Oxo-1-thiophen-2-ylmethyl-pyrrolidine-3-carboxylic acid (S)-{2-cyclohexyl-1-[2-(5-fluoro-2,3-dihydro-indol-1-yl)-ethylcarbamoyl]-ethyl}-amide] | < 100 |
| CC(C)(C)C[C@H](NC(=O)OC(C)(C)C)C(=O)N[C@@H](CCS(C)(=O)=O)CN1CCc2cc(F)ccc21 [Compound 157, {1-(S)-[1-(S)-(5-Fluoro-2,3-dihydro-indol-1-ylmethyl)-3-methanesulfonyl-propylcarbamoyl]-3,3-dimethyl-butyl}-carbamic acid tert-butyl ester] | < 100 |
| COc1cccc(C(=O)N[C@@H](CC2CCCCC2)C(=O)N[C@@H](CC(=O)OCc2ccccc2)CN2CCc3cc(F)ccc32)c1 [Compound 161, 3-(S)-[3-Cyclohexyl-2-(S)-(3-methoxy-benzoylamino)-propionylamino]-4-(5-fluoro-2,3-dihydro-indol-1-yl)-butyric acid benzyl ester] | < 100 |
| C[C@@H](CNc1cccc(S(C)(=O)=O)c1)NC(=O)[C@H](CC1CCCCC1)NC(=O)c1ccc(-c2cccc(F)c2)o1 [Compound 88, 5-(3-Fluoro-phenyl)-furan-2-carboxylic acid {2-cyclohexyl-1-(S)-[2-(3-methanesulfonyl-phenylamino)-1-(S)-methyl-ethylcarbamoyl]-ethyl}-amide] | < 100 |
| CC[C@@H](C(=O)N[C@@H](CC1CCCCC1)C(=O)NCCN1CCc2cc(F)ccc21)c1ccccc1 [Compound 148, N-{2-cyclohexyl-1-(S)-[2-(5-fluoro-2,3-dihydro-indol-1-yl)-ethylcarbamoyl]-ethyl}-2-(R)-phenyl-butyramide] | < 100 |
| O=C(N[C@@H](CC1CCCC1)C(=O)NCCN1CCc2cc(F)ccc21)c1ccc(-c2cccc(C(F)(F)F)c2)o1 [Compound 200, N-((S)-1-(2-(5-fluoroindolin-1-yl)ethylcarbamoyl)-2-cyclopentylethyl)-5-(3-(trifluoromethyl)phenyl)furan-2-carboxamide] | < 100 |
| Cc1cc(NC[C@H](C)NC(=O)[C@H](CC2CCCCC2)NC(=O)c2ccc(-c3cccc(F)c3)o2)no1 [Compound 133, 5-(3-Fluoro-phenyl)-furan-2-carboxylic acid {2-cyclohexyl-1-(S)-[1-(S)-methyl-2-(5-methyl-isoxazol-3-ylamino)-ethylcarbamoyl]-ethyl}-amide] | < 1000 |
| COc1cccc(C(=O)N[C@@H](CCC2CCCCC2)C(=O)NCCN2CCc3cc(C#N)ccc32)c1 [Compound 12, (S)-N-{3-Cyclohexyl-1-[2-(5-cyano-2,3-dihydro-indol-1-yl)-ethylcarbamoyl]-propyl}-3-methoxy-benzamide] | < 10000 |
| COc1cc(C)c(NC[C@H](C)NC(=O)[C@H](CC2CCCCC2)NC(=O)c2ccc(-c3cccc(F)c3)o2)c(C)c1 [Compound 114, 5-(3-Fluoro-phenyl)-furan-2-carboxylic acid {2-cyclohexyl-1-(S)-[2-(4-methoxy-2,6-dimethyl-phenylamino)-1-(S)-methyl-ethylcarbamoyl]-ethyl}-amide] | < 100 |
| CC(=O)Nc1nc(C)c(S(=O)(=O)N[C@@H](CC2CCCCC2)C(=O)NCCN2CCc3cc(F)ccc32)s1 [Compound 257, (S)-2-(2-Acetylamino-4-methyl-thiazole-5-sulfonylamino)-3-cyclohexyl-N-[2-(5-fluoro-2,3-dihydro-indol-1-yl)-ethyl]-propionamide] | < 100 |
| COc1cccc(C(=O)N[C@@H](CCC2CCCCC2)C(=O)NCCN2CCc3cc(OCc4ccccc4)ccc32)c1 [Compound 19, (S)-N-{3-Cyclohexyl-1-[2-(5-benzyloxy-2,3-dihydro-indol-1-yl)-ethylcarbamoyl]-propyl}-3-methoxy-benzamide] | < 10000 |
| C[C@@H](CNc1ccc(OC(F)(F)F)cc1)NC(=O)[C@H](CC1CCCCC1)NC(=O)C1CCOC1 (mixture of isomers) [Compound 272, Tetrahydrofuran-3-(R,S)-carboxylic acid {2-cyclohexyl-1-(S)-[1-(S)-methyl-2-(4-trifluoromethoxy-phenylamino)-ethylcarbamoyl]-ethyl}-amide] | < 100 |
| CC(C)(C)OC(=O)N[C@@H](CC1CCCCC1)C(=O)N[C@@H](CC(=O)OCc1ccccc1)CN1CCc2cc(F)ccc21 [Compound 261, (S,S)-3-(2-tert-Butoxycarbonylamino-3-cyclohexyl-propionylamino)-4-(5-fluoro-2,3-dihydro-indol-1-yl)-butyric acid benzyl ester] | < 100 |
| O=C(NCCN1CCc2cc(F)ccc21)[C@H](CC1CCCCC1)NS(=O)(=O)c1ccc(Oc2ccccc2)cc1 [Compound 226, (S)-3-Cyclohexyl-N-[2-(5-fluoro-2,3-dihydro-indol-1-yl)-ethyl]-2-(4-phenoxy-benzenesulfonylamino)-propionamide] | < 100 |
| COc1cccc(C(=O)N[C@@H](CCC2CCCCC2)C(=O)N[C@@H](CCCCNC(=O)OCc2ccccc2)CN2CCc3cc(F)ccc32)c1 [Compound 55, (S,S)-[5-[4-Cyclohexyl-2-(3-methoxy-benzoylamino)-butyrylamino]-6-(5-fluoro-2,3-dihydro-indol-1-yl)-hexyl]-carbamic acid benzyl ester] | < 1000 |
| C[C@@H](CNc1ccc(OC(F)(F)F)cc1)NC(=O)[C@H](CC1CCCCC1)NC(=O)c1ccc(-c2cccnc2)o1 [Compound 143, 5-Pyridin-3-yl-furan-2-carboxylic acid {2-cyclohexyl-1-(S)-[1-(S)-methyl-2-(4-trifluoromethoxy-phenylamino)-ethylcarbamoyl]-ethyl}-amide] | < 100 |
| C[C@@H](CN1CC(C)(C)c2cc(F)ccc21)NC(=O)[C@H](CC1CCCCC1)NC(=O)[C@H]1CCCO1 [Compound 273, Tetrahydrofuran-2-(R)-carboxylic acid {2-cyclohexyl-1-(S)-[2-(5-fluoro-3,3-dimethyl-2,3-dihydro-indol-1-yl)-1-(S)-methyl-ethylcarbamoyl]-ethyl}-amide] | < 100 |
| COc1ccc(S(=O)(=O)N[C@@H](CC2CCCCC2)C(=O)NCCN2CCc3cc(F)ccc32)cc1 [Compound 239, (S)-3-Cyclohexyl-N-[2-(5-fluoro-2,3-dihydro-indol-1-yl)-ethyl]-2-(4-methoxy-benzenesulfonylamino)-propionamide] | < 1000 |
| C[C@@H](CNc1ccc(OC(F)(F)F)cc1)NC(=O)[C@H](CC(C)(C)C)NC(=O)[C@H]1CCCO1 [Compound 268, Tetrahydrofuran-2-(R)-carboxylic acid {3,3-dimethyl-1-(S)-[1-(S)-methyl-2-(4-trifluoromethoxy-phenylamino)-ethylcarbamoyl]-butyl}-amide] | < 10000 |
| C[C@@H](CNc1ccc(OC(F)F)cc1)NC(=O)[C@H](CC1CCCCC1)NC(=O)c1ccc(-c2ccc(F)cc2)o1 [Compound 104, 5-(4-Fluoro-phenyl)-furan-2-carboxylic acid {2-cyclohexyl-1-(S)-[2-(4-difluoromethoxy-phenylamino)-1-(S)-methyl-ethylcarbamoyl]-ethyl}-amide] | < 100 |
| O=C(NC(C(=O)NC(CO)CN1CCc2cc(F)ccc21)c1ccc(Cl)cc1Cl)c1ccco1 [Compound 212, N-(S)-((3-(5-fluoroindolin-1-yl)-1-hydroxypropan-2-(R)-ylcarbamoyl)(2,4-dichlorophenyl)methyl) furan-2-carboxamide] | < 1000 |
| O=C(N[C@@H](CC1CCCCC1)C(=O)NCCN1CCc2cc(F)ccc21)C1CC(=O)N(Cc2ccco2)C1 (stereo partly drawn) [Compound 74, 1-Furan-2-ylmethyl-5-oxo-pyrrolidine-3-carboxylic acid (S)-{2-cyclohexyl-1-[2-(5-fluoro-2,3-dihydro-indol-1-yl)-ethylcarbamoyl]-ethyl}-amide] | < 1000 |
